Values joined by “and” are separate entries in the source; they are usually repeats but may differ in a detail not shown here. Equal values may be shown once. Read-outs that look alike come from different tables or passages of the source.
Target: T1, MRGPRX4 (Homo sapiens, UniProt Q96LA9)
T1 construct: expressed in transfected cells; host or cells: HEK293T
Assay: IP1 accumulation HTRF assay, MRGPRX4
Type: cell-based
Design: key to IP1 Basal / IP1 accumulation with YM (Figure 1c) / response to agonist, MRGPRX4 / IP1 accumulation: % IP1: unstimulated mock-transfected = 0%, fully stimulated MRGPRX4 = 100%
Details: for IP1 accumulation: MRGPRX4 alone, Fig S3d-f
Procedure: HEK293T cells were transfected with 1 pg/cell of MRGPRX4 DNA, and the amount of DNA was kept constant at 2 pg/cell with pcDNA3.1(+) empty vector, unless otherwise specified. Twenty four hours after transfection, IP1 assay was performed as previously described ([51]). When applicable, cells were treated with 1 μM YM254890 (YM) or different concentrations of U73122 for 1 h prior to addition of agonist or buffer. After incubation for 2 h, HTRF reagents and IP1 calibration standards were added and incubated for 2 h in the dark at room temperature. Time-resolved fluorescence signals were read on the BioTek Synergy NEO-TRF Hybrid multi-mode reader (BioTek Instruments). All data were carried out in three independent experiments with three technical replicate each.
For characterization of the Tet-On Nluc-HT7-MRGPRX4-GFP10-1D4 construct, HEK293T cells were transfected as previously described with some modifications. Dox dose-response of NLuc-HT7-MRGPRX4-GFP10-1D4 DNA titration was assayed by transfecting HEK293T cells with either 1 or 2 pg/cell of NLuc-HT7-MRGPRX4-GFP10-1D4 construct. Receptor expression was induced 4 h after transfection with addition of different concentrations of dox for 20 h. For the RAMP DNA titration assay, cells were cotransfected with a constant amount of 1 pg/cell of NLuc-HT7-MRGPRX4-GFP10-1D4 DNA and 1, 0.75, 0.5, or 0 pg/cell of each HA-RAMP-OLLAS with the homogenous transfection method. Four hours after transfection, receptor expression was induced with addition of 1000 ng/ml dox. Twenty hours after induction, IP1 assay was performed.
Data reduction, standard calibration, and transformation of HTRF data were performed as previously described ([51]). Normalized IP1 values were calculated relative to the unstimulated mock-transfected cells (set to 0%) and fully stimulated MRGPRX4 (alone if applicable) (set to 100%).

T1 sequence (Q96LA9 whole entry): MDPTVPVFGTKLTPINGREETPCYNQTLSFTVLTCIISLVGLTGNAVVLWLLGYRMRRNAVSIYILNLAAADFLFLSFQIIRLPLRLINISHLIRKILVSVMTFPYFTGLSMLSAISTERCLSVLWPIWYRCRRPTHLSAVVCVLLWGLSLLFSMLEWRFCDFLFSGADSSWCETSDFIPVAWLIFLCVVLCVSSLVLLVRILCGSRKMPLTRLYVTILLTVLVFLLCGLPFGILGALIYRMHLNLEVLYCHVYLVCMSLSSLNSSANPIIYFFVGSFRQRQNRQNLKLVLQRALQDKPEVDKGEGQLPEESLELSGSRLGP

With C[C@H](CCC(=O)O)[C@H]1CC[C@H]2[C@@H]3CC[C@@H]4C[C@H](O)CC[C@]4(C)[C@H]3C[C@H](O)[C@]12C [DCA, deoxycholic acid] the efficacy (Figure 4a bottom, MRGPRX4 alone (reference = 100), individual replicates) was 100, the Emax (Figure 4a bottom, MRGPRX4 alone (reference = 100), individual replicates, read-out: efficacy) was 100% and the “response to agonist, MRGPRX4” value (Figure 4c-f, agonist 100µM, MRGPRX4 alone (reference = 100)) was 100. The “normalized IP1 accumulation” value (HA-MRGX4-1D4, log [agonist] (M) -4) was 58.1095 and 47.3107, the “normalized IP1 accumulation” value (HA-MRGX4-1D4, log [agonist] (M) -4.69897) was 33.2327 and 34.6328 and the “normalized IP1 accumulation” value (HA-MRGX4-1D4, log [agonist] (M) -5.39794) was 18.9895. For the same compound, the “normalized IP1 accumulation” value (HA-MRGX4-1D4, log [agonist] (M) -6.09691) was 13.2757 and 15.4467, the “normalized IP1 accumulation” value (HA-MRGX4-1D4, log [agonist] (M) -6.79588) was 13.3916 and 13.9578 and the “normalized IP1 accumulation” value (HA-MRGX4-1D4, log [agonist] (M) -7.49485) was 12.579 and 14.4894. For the same compound, the Emax (HEK-293T, MRGPRX4 (Fig. 1A), HEK293T, normalized to 100 μM nateglinide, read-out: IP1 Emax) was 77.9%, the Emax (HEK-293T, MRGPRX4 (Fig. 1A), HEK293T, normalized to 100 μM nateglinide, read-out: IP1 span) was 62.9% and the Emax (MRGPRX4 0.125 pg DNA/cell, individual experiments, read-out: efficacy (Figure 1b bottom)) was 47.9%. For the same compound, the Emax (MRGPRX4 0.25 pg DNA/cell, individual experiments, read-out: efficacy (Figure 1b bottom)) was 45%, the Emax (MRGPRX4 0.5 pg DNA/cell, individual experiments, read-out: efficacy (Figure 1b bottom)) was 58.3% and the Emax (MRGPRX4 1 pg DNA/cell, individual experiments, read-out: efficacy (Figure 1b bottom)) was 70.6%. For the same compound, the Emax (MRGPRX4 2 pg DNA/cell, individual experiments, read-out: efficacy (Figure 1b bottom)) was 80.7%, the “IP1 Basal” value (MRGPRX4 (Fig. 1A), HEK293T, normalized to 100 μM nateglinide) was 15.03 and the “IP1 Basal” value (MRGPRX4 DNA 0.25 pg/cell (Fig. S1)) was 4.249. The Emax (MRGPRX4 DNA 0.25 pg/cell (Fig. S1), read-out: IP1 Emax) was 54.2%, the Emax (MRGPRX4 DNA 0.25 pg/cell (Fig. S1), read-out: IP1 span) was 50% and the “IP1 Basal” value (MRGPRX4 DNA 0.5 pg/cell (Fig. S1)) was 6.783. The Emax (MRGPRX4 DNA 0.5 pg/cell (Fig. S1), read-out: IP1 Emax) was 68%, the Emax (MRGPRX4 DNA 0.5 pg/cell (Fig. S1), read-out: IP1 span) was 61.2% and the “IP1 Basal” value (MRGPRX4 DNA 1 pg/cell (Fig. S1)) was 9.471. For the same compound, the Emax (MRGPRX4 DNA 1 pg/cell (Fig. S1), read-out: IP1 Emax) was 73.8%, the Emax (MRGPRX4 DNA 1 pg/cell (Fig. S1), read-out: IP1 span) was 64.3% and the “IP1 Basal” value (MRGPRX4 DNA 2 pg/cell (Fig. S1)) was 12.99. It also gave an Emax (MRGPRX4 DNA 2 pg/cell (Fig. S1), read-out: IP1 Emax) of 87.2%, an Emax (MRGPRX4 DNA 2 pg/cell (Fig. S1), read-out: IP1 span) of 74.2% and an Emax (MRGPRX4 DNA […] (Fig. S1), read-out: IP1 Emax) of 50.3%. The Emax (MRGPRX4 DNA […] (Fig. S1), read-out: IP1 span) was 47%, the IP1 accumulation (log [DCA] (M) -4.69897) was 57.1868 and 75.4734 and the IP1 accumulation (log [DCA] (M) -5.39794) was 30.3386. For the same compound, the IP1 accumulation (log [DCA] (M) -6.09691) was 23.4514 and 33.1858, the IP1 accumulation (log [DCA] (M) -6.79588) was 21.3567 and 30.9234 and the IP1 accumulation (log [DCA] (M) -7.49485) was 19.4869 and 27.2792. For the same compound, the “normalized IP1 accumulation” value (SP-FLAG-Nluc-HT7-MRGX4_Tet-GFP10-1D4, log [agonist] (M) -4.09691) was 41.457 and 40.0931, the “normalized IP1 accumulation” value (SP-FLAG-Nluc-HT7-MRGX4_Tet-GFP10-1D4, log [agonist] (M) -4.79588) was 23.5519 and 24.4487 and the “normalized IP1 accumulation” value (SP-FLAG-Nluc-HT7-MRGX4_Tet-GFP10-1D4, log [agonist] (M) -5.49485) was 12.8144 and 13.3904. The “normalized IP1 accumulation” value (SP-FLAG-Nluc-HT7-MRGX4_Tet-GFP10-1D4, log [agonist] (M) -6.19382) was 11.7164 and 10.0407, the “normalized IP1 accumulation” value (SP-FLAG-Nluc-HT7-MRGX4_Tet-GFP10-1D4, log [agonist] (M) -6.89279) was 9.829 and 11.4364 and the “normalized IP1 accumulation” value (SP-FLAG-Nluc-HT7-MRGX4_Tet-GFP10-1D4, log [agonist] (M) -7.59176) was 10.7139 and 10.5391. For the same compound, the “normalized IP1 accumulation” value (SP-FLAG-Nluc-HT7-MRGX4_Tet-GFP10-1D4 no dox, log [agonist] (M) -4.09691) was 9.638 and 9.7, the “normalized IP1 accumulation” value (SP-FLAG-Nluc-HT7-MRGX4_Tet-GFP10-1D4 no dox, log [agonist] (M) -4.79588) was 7.503 and 8.174 and the “normalized IP1 accumulation” value (SP-FLAG-Nluc-HT7-MRGX4_Tet-GFP10-1D4 no dox, log [agonist] (M) -5.49485) was 9.457 and 8.365. The “normalized IP1 accumulation” value (SP-FLAG-Nluc-HT7-MRGX4_Tet-GFP10-1D4 no dox, log [agonist] (M) -6.19382) was 8.686 and 8.091, the “normalized IP1 accumulation” value (SP-FLAG-Nluc-HT7-MRGX4_Tet-GFP10-1D4 no dox, log [agonist] (M) -6.89279) was 8.749 and 8.325 and the “normalized IP1 accumulation” value (SP-FLAG-Nluc-HT7-MRGX4_Tet-GFP10-1D4 no dox, log [agonist] (M) -7.59176) was 8.705 and 9.2498. The “normalized IP1 accumulation” value (SP-Flag-MRGX4-1D4, log [agonist] (M) -4) was 68.6268 and 66.4742, the “normalized IP1 accumulation” value (SP-Flag-MRGX4-1D4, log [agonist] (M) -4.69897) was 30.127 and 33.8796 and the “normalized IP1 accumulation” value (SP-Flag-MRGX4-1D4, log [agonist] (M) -5.39794) was 14.3992 and 13.1143. The “normalized IP1 accumulation” value (SP-Flag-MRGX4-1D4, log [agonist] (M) -6.09691) was 8.224 and 9.664, the “normalized IP1 accumulation” value (SP-Flag-MRGX4-1D4, log [agonist] (M) -6.79588) was 7.099 and 7.695 and the “normalized IP1 accumulation” value (SP-Flag-MRGX4-1D4, log [agonist] (M) -7.49485) was 6.315 and 7.555. For the same compound, the “normalized IP1 accumulation” value (SP-Flag-MRGX4-GFP10-1D4, log [agonist] (M) -4) was 68.4519 and 65.3389, the “normalized IP1 accumulation” value (SP-Flag-MRGX4-GFP10-1D4, log [agonist] (M) -4.69897) was 36.0479 and 38.0394 and the “normalized IP1 accumulation” value (SP-Flag-MRGX4-GFP10-1D4, log [agonist] (M) -6.09691) was 10.072 and 10.3886. The “normalized IP1 accumulation” value (SP-Flag-MRGX4-GFP10-1D4, log [agonist] (M) -6.79588) was 8.9869 and 9.025, the “normalized IP1 accumulation” value (SP-Flag-MRGX4-GFP10-1D4, log [agonist] (M) -7.49485) was 7.933 and 9.527 and the “IP1 Basal” value (construct FLAG-MRGPRX4-1D4 (Fig. S4A-F)) was 7.469. For the same compound, the Emax (construct FLAG-MRGPRX4-1D4 (Fig. S4A-F), read-out: IP1 Emax) was 96.3%, the Emax (construct FLAG-MRGPRX4-1D4 (Fig. S4A-F), read-out: IP1 span) was 88.8% and the “IP1 Basal” value (construct FLAG-MRGPRX4-GFP10-1D4 (Fig. S4A-F)) was 8.165. The Emax (construct FLAG-MRGPRX4-GFP10-1D4 (Fig. S4A-F), read-out: IP1 Emax) was 88.5%, the Emax (construct FLAG-MRGPRX4-GFP10-1D4 (Fig. S4A-F), read-out: IP1 span) was 80.4% and the “IP1 Basal” value (construct FLAG-NLuc-HT7-MRGPRX4-GFP10-1D4 (Fig. S4A-F)) was 10.56. For the same compound, the Emax (construct FLAG-NLuc-HT7-MRGPRX4-GFP10-1D4 (Fig. S4A-F), read-out: IP1 Emax) was 55%, the Emax (construct FLAG-NLuc-HT7-MRGPRX4-GFP10-1D4 (Fig. S4A-F), read-out: IP1 span) was 44.5% and the “IP1 Basal” value (construct HA-MRGPRX4-1D4 (Fig. S4A-F)) was 12.52. The Emax (construct HA-MRGPRX4-1D4 (Fig. S4A-F), read-out: IP1 Emax) was 64.7% and the Emax (construct HA-MRGPRX4-1D4 (Fig. S4A-F), read-out: IP1 span) was 52.2%.

Source: article PMC10165273, “Itch receptor MRGPRX4 interacts with the receptor activity–modifying proteins” (The Journal of Biological Chemistry, 2023)
